Assays:
Assay in all cases: KINOMEscan competition binding
Conditions in all cases: compound 10.0 µM
EPHA8 (human) = EPHA8 (human) (UniProt P29322)
MAPKAPK5 (human) = MAPKAPK5 (human) (UniProt Q8IW41)
PAK7 (human) = PAK7 (human) (UniProt Q9P286)
MARK3 (human) = MARK3 (human) (UniProt P27448)
MAPK12 (human) = MAPK12 (human) (UniProt P53778)
MYO3B (human) = MYO3B (human) (UniProt Q8WXR4)
BMPR2 (human) = BMPR2 (human) (UniProt Q13873)
CLK1 (human) = CLK1 (human) (UniProt P49759)
CSNK1D (human) = CSNK1D (human) (UniProt P48730)
MYLK2 (human) = MYLK2 (human) (UniProt Q9H1R3)
STK32C (human) = STK32C (human) (UniProt Q86UX6)
PDGFRA (human) = PDGFRA (human) (UniProt P16234)
INSR (human) = INSR (human) (UniProt P06213)
PIK3CD (human) = PIK3CD (human) (UniProt O00329)
MAPK8 (human) = MAPK8 (human) (UniProt P45983)
DCLK3 (human) = DCLK3 (human) (UniProt Q9C098)
NEK9 (human) = NEK9 (human) (UniProt Q8TD19)
MAPK11 (human) = MAPK11 (human) (UniProt Q15759)
Sequence of MAPK11 (human) (Q15759 whole entry, looked up): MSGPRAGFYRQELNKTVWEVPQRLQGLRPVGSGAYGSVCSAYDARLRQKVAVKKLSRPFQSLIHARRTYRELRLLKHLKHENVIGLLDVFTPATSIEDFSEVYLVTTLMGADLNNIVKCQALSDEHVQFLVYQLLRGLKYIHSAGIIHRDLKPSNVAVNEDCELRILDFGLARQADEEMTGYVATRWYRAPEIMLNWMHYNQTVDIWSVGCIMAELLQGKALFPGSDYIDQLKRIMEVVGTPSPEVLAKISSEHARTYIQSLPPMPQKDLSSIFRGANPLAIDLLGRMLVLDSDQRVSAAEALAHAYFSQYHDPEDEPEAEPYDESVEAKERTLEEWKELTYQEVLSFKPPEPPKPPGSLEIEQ

CSNK1G2 (human) = CSNK1G2 (human) (UniProt P78368)
CAMK2D (human) = CAMK2D (human) (UniProt Q13557)
Sequence of CAMK2D (human) (Q13557 whole entry, looked up): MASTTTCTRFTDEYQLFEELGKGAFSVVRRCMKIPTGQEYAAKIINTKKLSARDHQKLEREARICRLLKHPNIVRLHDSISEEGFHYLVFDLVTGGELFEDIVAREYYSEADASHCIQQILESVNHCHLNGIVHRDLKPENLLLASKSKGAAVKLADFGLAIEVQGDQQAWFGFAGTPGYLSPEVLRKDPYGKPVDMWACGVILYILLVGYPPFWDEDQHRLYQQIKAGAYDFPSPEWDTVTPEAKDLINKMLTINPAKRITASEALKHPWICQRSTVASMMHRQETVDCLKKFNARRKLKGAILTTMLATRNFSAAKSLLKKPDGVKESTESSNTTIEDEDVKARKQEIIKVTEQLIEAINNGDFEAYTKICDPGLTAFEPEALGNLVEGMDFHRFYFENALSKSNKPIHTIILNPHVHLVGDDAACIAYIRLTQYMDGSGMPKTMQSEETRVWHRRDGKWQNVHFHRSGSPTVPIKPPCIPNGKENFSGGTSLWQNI

LYN (human) = LYN (human) (UniProt P07948)
CSK (human) = CSK (human) (UniProt P41240)
INSRR (human) = INSRR (human) (UniProt P14616)
LIMK1 (human) = LIMK1 (human) (UniProt P53667)
MELK (human) = MELK (human) (UniProt Q14680)
NUAK1 (human) = NUAK1 (human) (UniProt O60285)
CSNK1G3 (human) = CSNK1G3 (human) (UniProt Q9Y6M4)
AURKC (human) = AURKC (human) (UniProt Q9UQB9)
PAK6 (human) = PAK6 (human) (UniProt Q9NQU5)
CAMK1D (human) = CAMK1D (human) (UniProt Q8IU85)
Sequence of CAMK1D (human) (Q8IU85 whole entry, looked up): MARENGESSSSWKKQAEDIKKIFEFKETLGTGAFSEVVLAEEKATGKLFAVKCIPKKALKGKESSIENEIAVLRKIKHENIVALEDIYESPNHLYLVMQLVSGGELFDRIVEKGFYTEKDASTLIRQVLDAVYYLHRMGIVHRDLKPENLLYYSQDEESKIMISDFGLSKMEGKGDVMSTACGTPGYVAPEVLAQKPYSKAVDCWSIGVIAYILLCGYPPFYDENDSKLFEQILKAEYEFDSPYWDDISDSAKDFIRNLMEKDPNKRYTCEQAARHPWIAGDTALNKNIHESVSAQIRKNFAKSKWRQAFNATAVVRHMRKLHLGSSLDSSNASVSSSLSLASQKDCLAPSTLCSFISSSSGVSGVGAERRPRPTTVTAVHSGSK

ADCK3 (human) = ADCK3 (human) (UniProt Q8NI60)
RPS6KA4 KD2 (human) = RPS6KA4 KD2 (human) (UniProt O75676)
FYN (human) = FYN (human) (UniProt P06241)
Sequence of FYN (human) (P06241 whole entry, looked up): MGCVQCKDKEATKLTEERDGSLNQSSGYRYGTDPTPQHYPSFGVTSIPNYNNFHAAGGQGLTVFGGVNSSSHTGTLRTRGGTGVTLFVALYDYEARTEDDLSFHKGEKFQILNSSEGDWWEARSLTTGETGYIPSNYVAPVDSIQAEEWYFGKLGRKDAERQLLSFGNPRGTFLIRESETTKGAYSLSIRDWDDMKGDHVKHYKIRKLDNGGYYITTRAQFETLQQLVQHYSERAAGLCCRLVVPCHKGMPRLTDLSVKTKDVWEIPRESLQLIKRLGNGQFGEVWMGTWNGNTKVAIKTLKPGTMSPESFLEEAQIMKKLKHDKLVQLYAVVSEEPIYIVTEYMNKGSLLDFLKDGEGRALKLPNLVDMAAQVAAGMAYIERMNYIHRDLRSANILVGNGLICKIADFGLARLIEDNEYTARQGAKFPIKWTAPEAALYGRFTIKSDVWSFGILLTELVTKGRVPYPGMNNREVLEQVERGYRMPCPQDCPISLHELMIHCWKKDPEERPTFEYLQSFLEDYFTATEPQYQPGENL

STK4 (human) = STK4 (human) (UniProt Q13043)
CAMK2G (human) = CAMK2G (human) (UniProt Q13555)
CDK9 (human) = CDK9 (human) (UniProt P50750)
CLK3 (human) = CLK3 (human) (UniProt P49761)
Sequence of CLK3 (human) (P49761 whole entry, looked up): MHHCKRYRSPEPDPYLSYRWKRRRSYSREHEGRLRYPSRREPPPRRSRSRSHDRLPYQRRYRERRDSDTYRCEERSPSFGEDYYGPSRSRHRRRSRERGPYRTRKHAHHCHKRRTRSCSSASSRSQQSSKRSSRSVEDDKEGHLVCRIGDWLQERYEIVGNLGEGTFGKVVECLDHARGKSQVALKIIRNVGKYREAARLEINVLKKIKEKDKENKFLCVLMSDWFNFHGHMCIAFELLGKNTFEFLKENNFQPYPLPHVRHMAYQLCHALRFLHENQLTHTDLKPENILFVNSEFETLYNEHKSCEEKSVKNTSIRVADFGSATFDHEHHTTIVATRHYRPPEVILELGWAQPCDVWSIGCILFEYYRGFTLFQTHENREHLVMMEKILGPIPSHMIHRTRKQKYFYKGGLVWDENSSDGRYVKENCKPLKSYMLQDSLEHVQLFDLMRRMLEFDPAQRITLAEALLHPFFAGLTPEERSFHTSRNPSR

MERTK (human) = MERTK (human) (UniProt Q12866)
SLK (human) = SLK (human) (UniProt Q9H2G2)
TLK2 (human) = TLK2 (human) (UniProt Q86UE8)
Sequence of TLK2 (human) (Q86UE8 whole entry, looked up): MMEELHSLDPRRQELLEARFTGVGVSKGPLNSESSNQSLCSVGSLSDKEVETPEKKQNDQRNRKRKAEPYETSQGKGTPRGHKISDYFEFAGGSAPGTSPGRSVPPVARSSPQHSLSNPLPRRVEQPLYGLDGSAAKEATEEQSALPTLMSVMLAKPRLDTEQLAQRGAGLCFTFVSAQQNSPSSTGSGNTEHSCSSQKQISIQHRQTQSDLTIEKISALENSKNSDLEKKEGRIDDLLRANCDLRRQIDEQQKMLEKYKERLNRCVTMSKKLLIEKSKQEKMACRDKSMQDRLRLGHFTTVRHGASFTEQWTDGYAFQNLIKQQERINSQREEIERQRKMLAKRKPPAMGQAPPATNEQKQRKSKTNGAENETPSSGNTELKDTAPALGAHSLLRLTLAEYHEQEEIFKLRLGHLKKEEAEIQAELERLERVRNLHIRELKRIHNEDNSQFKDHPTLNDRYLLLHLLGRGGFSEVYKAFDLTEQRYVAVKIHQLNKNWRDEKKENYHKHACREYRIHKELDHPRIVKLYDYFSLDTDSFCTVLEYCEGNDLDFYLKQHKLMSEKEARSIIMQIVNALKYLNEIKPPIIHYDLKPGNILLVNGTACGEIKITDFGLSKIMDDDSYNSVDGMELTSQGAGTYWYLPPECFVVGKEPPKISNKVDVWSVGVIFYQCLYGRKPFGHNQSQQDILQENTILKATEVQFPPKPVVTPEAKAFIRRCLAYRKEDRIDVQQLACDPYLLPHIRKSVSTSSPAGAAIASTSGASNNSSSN

Sequence of MAPK12 (human) (P53778 whole entry, looked up): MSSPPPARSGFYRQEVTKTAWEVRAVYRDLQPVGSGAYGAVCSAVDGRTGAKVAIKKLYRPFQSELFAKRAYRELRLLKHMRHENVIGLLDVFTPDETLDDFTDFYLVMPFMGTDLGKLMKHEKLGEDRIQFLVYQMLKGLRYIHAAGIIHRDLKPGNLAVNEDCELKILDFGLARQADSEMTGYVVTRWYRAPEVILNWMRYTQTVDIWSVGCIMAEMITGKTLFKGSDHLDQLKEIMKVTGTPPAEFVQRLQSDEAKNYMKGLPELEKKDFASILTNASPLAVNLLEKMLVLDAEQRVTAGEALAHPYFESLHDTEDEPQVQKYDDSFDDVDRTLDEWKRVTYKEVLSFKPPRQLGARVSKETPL
Sequence of MYO3B (human) (Q8WXR4 whole entry, looked up): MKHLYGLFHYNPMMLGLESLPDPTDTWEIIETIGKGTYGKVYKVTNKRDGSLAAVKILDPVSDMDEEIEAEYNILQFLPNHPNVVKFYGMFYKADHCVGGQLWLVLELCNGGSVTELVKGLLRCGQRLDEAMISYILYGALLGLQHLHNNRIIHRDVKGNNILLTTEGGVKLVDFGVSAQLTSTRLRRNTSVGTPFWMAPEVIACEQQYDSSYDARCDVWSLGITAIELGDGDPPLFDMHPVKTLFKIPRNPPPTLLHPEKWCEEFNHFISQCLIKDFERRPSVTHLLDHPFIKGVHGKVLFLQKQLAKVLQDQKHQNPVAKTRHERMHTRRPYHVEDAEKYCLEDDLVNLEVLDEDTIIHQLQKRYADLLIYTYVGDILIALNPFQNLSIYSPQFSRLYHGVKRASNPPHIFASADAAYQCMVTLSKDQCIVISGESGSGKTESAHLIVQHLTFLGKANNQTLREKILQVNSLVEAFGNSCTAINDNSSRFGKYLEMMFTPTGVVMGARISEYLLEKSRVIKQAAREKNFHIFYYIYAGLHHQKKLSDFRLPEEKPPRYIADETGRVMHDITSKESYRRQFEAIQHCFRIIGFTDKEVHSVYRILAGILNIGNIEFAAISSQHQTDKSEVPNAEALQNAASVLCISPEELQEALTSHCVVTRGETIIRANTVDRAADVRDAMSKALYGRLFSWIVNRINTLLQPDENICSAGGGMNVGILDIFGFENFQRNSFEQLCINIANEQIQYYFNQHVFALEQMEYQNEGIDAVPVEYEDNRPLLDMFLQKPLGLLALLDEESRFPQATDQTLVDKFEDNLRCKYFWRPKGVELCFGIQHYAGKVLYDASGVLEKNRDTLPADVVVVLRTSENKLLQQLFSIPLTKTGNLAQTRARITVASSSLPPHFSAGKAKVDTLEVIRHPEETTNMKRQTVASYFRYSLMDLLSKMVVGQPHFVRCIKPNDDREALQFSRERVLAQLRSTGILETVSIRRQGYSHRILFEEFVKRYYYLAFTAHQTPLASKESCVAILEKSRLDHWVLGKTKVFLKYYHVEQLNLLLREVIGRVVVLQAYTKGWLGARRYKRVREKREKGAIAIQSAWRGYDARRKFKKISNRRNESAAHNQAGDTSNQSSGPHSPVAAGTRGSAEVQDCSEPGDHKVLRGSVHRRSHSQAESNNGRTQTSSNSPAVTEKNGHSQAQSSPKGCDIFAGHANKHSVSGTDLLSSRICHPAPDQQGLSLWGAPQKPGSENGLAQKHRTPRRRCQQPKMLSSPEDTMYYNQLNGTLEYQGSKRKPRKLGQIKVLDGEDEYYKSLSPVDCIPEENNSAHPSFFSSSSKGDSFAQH

Compound: C[C@@H](Oc1cc(-n2cnc3ccc(CN4CCN(C)CC4)cc32)sc1C(N)=O)c1ccccc1C(F)(F)F
- kinase still bound, per cent of control (EPHA8 (human)): 90%
- kinase still bound, per cent of control (MAPKAPK5 (human)): 89%
- kinase still bound, per cent of control (PAK7 (human)): 60%
- kinase still bound, per cent of control (MARK3 (human)): 63%
- kinase still bound, per cent of control (MAPK12 (human)): 95%
- kinase still bound, per cent of control (MYO3B (human)): 100%
- kinase still bound, per cent of control (BMPR2 (human)): 97%
- kinase still bound, per cent of control (CLK1 (human)): 36%
- kinase still bound, per cent of control (CSNK1D (human)): 100%
- kinase still bound, per cent of control (MYLK2 (human)): 61%
- kinase still bound, per cent of control (STK32C (human)): 100%
- kinase still bound, per cent of control (PDGFRA (human)): 100%
- kinase still bound, per cent of control (INSR (human)): 100%
- kinase still bound, per cent of control (PIK3CD (human)): 14%
- kinase still bound, per cent of control (MAPK8 (human)): 100%
- kinase still bound, per cent of control (DCLK3 (human)): 72%
- kinase still bound, per cent of control (NEK9 (human)): 10%
- kinase still bound, per cent of control (MAPK11 (human)): 100%
- kinase still bound, per cent of control (CSNK1G2 (human)): 97%
- kinase still bound, per cent of control (CAMK2D (human)): 7.3%
- kinase still bound, per cent of control (LYN (human)): 99%
- kinase still bound, per cent of control (CSK (human)): 100%
- kinase still bound, per cent of control (INSRR (human)): 100%
- kinase still bound, per cent of control (LIMK1 (human)): 100%
- kinase still bound, per cent of control (MELK (human)): 49%
- kinase still bound, per cent of control (NUAK1 (human)): 17%
- kinase still bound, per cent of control (CSNK1G3 (human)): 100%
- kinase still bound, per cent of control (AURKC (human)): 100%
- kinase still bound, per cent of control (PAK6 (human)): 98%
- kinase still bound, per cent of control (CAMK1D (human)): 82%
- kinase still bound, per cent of control (ADCK3 (human)): 77%
- kinase still bound, per cent of control (RPS6KA4 KD2 (human)): 0.55%
- kinase still bound, per cent of control (FYN (human)): 100%
- kinase still bound, per cent of control (STK4 (human)): 100%
- kinase still bound, per cent of control (CAMK2G (human)): 15%
- kinase still bound, per cent of control (CDK9 (human)): 93%
- kinase still bound, per cent of control (CLK3 (human)): 91%
- kinase still bound, per cent of control (MERTK (human)): 24%
- kinase still bound, per cent of control (SLK (human)): 0.25%
- kinase still bound, per cent of control (TLK2 (human)): 94%

Compound: CCC(=O)N1CCN(c2ccc(-n3c(=O)ccc4cnc5ccc(-c6cnc7ccccc7c6)cc5c43)cc2C(F)(F)F)CC1
- kinase still bound, per cent of control (EPHA8 (human)): 71%
- kinase still bound, per cent of control (MAPKAPK5 (human)): 100%
- kinase still bound, per cent of control (PAK7 (human)): 87%
- kinase still bound, per cent of control (MARK3 (human)): 100%
- kinase still bound, per cent of control (MAPK12 (human)): 71%
- kinase still bound, per cent of control (MYO3B (human)): 100%
- kinase still bound, per cent of control (BMPR2 (human)): 59%
- kinase still bound, per cent of control (CLK1 (human)): 49%
- kinase still bound, per cent of control (CSNK1D (human)): 4.3%
- kinase still bound, per cent of control (MYLK2 (human)): 40%
- kinase still bound, per cent of control (STK32C (human)): 100%
- kinase still bound, per cent of control (PDGFRA (human)): 63%
- kinase still bound, per cent of control (INSR (human)): 7.6%
- kinase still bound, per cent of control (PIK3CD (human)): 51%
- kinase still bound, per cent of control (MAPK8 (human)): 22%
- kinase still bound, per cent of control (DCLK3 (human)): 97%
- kinase still bound, per cent of control (NEK9 (human)): 100%
- kinase still bound, per cent of control (MAPK11 (human)): 53%
- kinase still bound, per cent of control (CSNK1G2 (human)): 100%
- kinase still bound, per cent of control (CAMK2D (human)): 72%
- kinase still bound, per cent of control (LYN (human)): 79%
- kinase still bound, per cent of control (CSK (human)): 71%
- kinase still bound, per cent of control (INSRR (human)): 100%
- kinase still bound, per cent of control (LIMK1 (human)): 15%
- kinase still bound, per cent of control (MELK (human)): 50%
- kinase still bound, per cent of control (NUAK1 (human)): 100%
- kinase still bound, per cent of control (CSNK1G3 (human)): 100%
- kinase still bound, per cent of control (AURKC (human)): 91%
- kinase still bound, per cent of control (PAK6 (human)): 77%
- kinase still bound, per cent of control (CAMK1D (human)): 88%
- kinase still bound, per cent of control (ADCK3 (human)): 17%
- kinase still bound, per cent of control (RPS6KA4 KD2 (human)): 100%
- kinase still bound, per cent of control (FYN (human)): 49%
- kinase still bound, per cent of control (STK4 (human)): 7.6%
- kinase still bound, per cent of control (CAMK2G (human)): 79%
- kinase still bound, per cent of control (CDK9 (human)): 94%
- kinase still bound, per cent of control (CLK3 (human)): 43%
- kinase still bound, per cent of control (MERTK (human)): 53%
- kinase still bound, per cent of control (SLK (human)): 94%
- kinase still bound, per cent of control (TLK2 (human)): 100%

Compound: O=C(NC1CC1)c1cccc(-c2ccc3c(NC(=O)C4CC4)n[nH]c3c2)c1
- kinase still bound, per cent of control (EPHA8 (human)): 92%
- kinase still bound, per cent of control (MAPKAPK5 (human)): 99%
- kinase still bound, per cent of control (PAK7 (human)): 67%
- kinase still bound, per cent of control (MARK3 (human)): 75%
- kinase still bound, per cent of control (MAPK12 (human)): 24%
- kinase still bound, per cent of control (MYO3B (human)): 93%
- kinase still bound, per cent of control (BMPR2 (human)): 91%
- kinase still bound, per cent of control (CLK1 (human)): 77%
- kinase still bound, per cent of control (CSNK1D (human)): 78%
- kinase still bound, per cent of control (MYLK2 (human)): 12%
- kinase still bound, per cent of control (STK32C (human)): 89%
- kinase still bound, per cent of control (PDGFRA (human)): 29%
- kinase still bound, per cent of control (INSR (human)): 78%
- kinase still bound, per cent of control (PIK3CD (human)): 85%
- kinase still bound, per cent of control (MAPK8 (human)): 40%
- kinase still bound, per cent of control (DCLK3 (human)): 100%
- kinase still bound, per cent of control (NEK9 (human)): 100%
- kinase still bound, per cent of control (MAPK11 (human)): 2.6%
- kinase still bound, per cent of control (CSNK1G2 (human)): 94%
- kinase still bound, per cent of control (CAMK2D (human)): 84%
- kinase still bound, per cent of control (LYN (human)): 83%
- kinase still bound, per cent of control (CSK (human)): 84%
- kinase still bound, per cent of control (INSRR (human)): 95%
- kinase still bound, per cent of control (LIMK1 (human)): 100%
- kinase still bound, per cent of control (MELK (human)): 64%
- kinase still bound, per cent of control (NUAK1 (human)): 100%
- kinase still bound, per cent of control (CSNK1G3 (human)): 98%
- kinase still bound, per cent of control (AURKC (human)): 8.6%
- kinase still bound, per cent of control (PAK6 (human)): 61%
- kinase still bound, per cent of control (CAMK1D (human)): 100%
- kinase still bound, per cent of control (ADCK3 (human)): 78%
- kinase still bound, per cent of control (RPS6KA4 KD2 (human)): 100%
- kinase still bound, per cent of control (FYN (human)): 79%
- kinase still bound, per cent of control (STK4 (human)): 76%
- kinase still bound, per cent of control (CAMK2G (human)): 89%
- kinase still bound, per cent of control (CDK9 (human)): 93%
- kinase still bound, per cent of control (CLK3 (human)): 80%
- kinase still bound, per cent of control (MERTK (human)): 71%
- kinase still bound, per cent of control (SLK (human)): 100%
- kinase still bound, per cent of control (TLK2 (human)): 79%
